We go through one molecule from patent publication US20260055107A1, “SERIES OF NITROGEN-CONTAINING BRIDGED HETEROCYCLIC COMPOUNDS AND PREPARATION METHOD THEREFOR” (CMS RESEARCH & DEVELOPMENT PTE. LTD., priority 2022, published 2026).

Data set [1] in a line: Plasma protein binding rate test (equilibrium dialysis), mouse. The class given is in vitro ADME, CD-1 mice. The conditions noted are these: 2 μM, equilibrium dialysis 37° C. 4 hours, CD-1 mouse plasma. The procedure: (§1) Experimental purpose: To evaluate the protein binding rate of the compounds of the present disclosure in the plasma of CD-1 mice, SD rats, beagle dogs, cynomolgus monkeys and humans using equilibrium dialysis.
(§2) The test compounds were diluted with dialysis buffer into the plasma of the above five species to prepare samples with a final concentration of 2 μM. The samples were then added to a 96-well equilibrium dialysis device and dialyzed using phosphate buffered saline solution at 37° C. for 4 hours. Warfarin was used as a control compound in the experiment. The concentration of the test compounds and warfarin in the plasma and buffer was determined using LC-MS/MS. The free fraction of the compound was calculated by the following formula: PPB_Unbound (%)=100*FC/TC, where FC is the concentration of the compound at the buffer end of the dialysis plate; TC is the concentration of the compound at the plasma end of the dialysis plate; To is the concentration of the compound in the plasma sample at time zero.

The nature of data set [2]: Plasma protein binding rate test (equilibrium dialysis), dog. In kind it is in vitro ADME, beagle dogs. The note with it: 2 μM, equilibrium dialysis 37° C. 4 hours, beagle dog plasma. The procedure:
as §1, §2

The nature of data set [3]: Plasma protein binding rate test (equilibrium dialysis), cynomolgus monkey. The class given is in vitro ADME, cynomolgus monkeys. The note with it: 2 μM, equilibrium dialysis 37° C. 4 hours. The method, then:
as §1, §2

A short description of data set [4]: In vitro liver microsomal stability test. The class given is in vitro ADME, human. The note with it: 1 μM compound, 0.5 mg/mL liver microsomes, NADPH. The procedure:
Liver microsomes: purchased from Corning or Xenotech, stored in a −80° C. refrigerator; reduced nicotinamide adenine dinucleotide phosphate (NADPH), supplier: Chem-Impex International, Cat. No.: 00616; control compounds: testosterone, diclofenac, propafenone.
Stock solution: 10 mM DMSO solution; preparation of working concentration: The stock solution was diluted to 100 μM using 100% acetonitrile (organic phase content: 99% acetonitrile, 1% DMSO).
Two 96-well incubation plates were prepared and named as T60 incubation plate and NCF60 incubation plate.
445 μL of microsomal working solution (liver microsomal protein concentration of 0.56 mg/mL) was added to both the T60 incubation plate and the NCF60 incubation plate. The two incubation plates were pre-incubated in a 37° C. water bath for approximately 10 minutes.
After pre-incubation was completed, 5 μL of the test compound or control compound working solution was added to both the T60 incubation plate and the NCF60 incubation plate and mixed well. 50 μL of potassium phosphate buffer per well was added to the NCF60 incubation plate to initiate the reaction. 180 μL of termination solution (acetonitrile solution containing 200 ng/mL tolbutamide and 200 ng/mL labetalol) and 6 μL of NADPH regeneration system working solution were added to a TO termination plate. […]

Another data set concerns Caco-2 cells. The data set is described as follows: In vitro Caco-2 cell permeability test. The class given is in vitro ADME. The conditions noted are these: Caco-2, 2 μM, 120 minutes. The method, then:
Cell culture was performed using MEM (minimum essential medium) supplemented with 2 mM L-glutamine, 10% fetal bovine serum (FBS), 100 U/mL penicillin-G and 100 μg/mL streptomycin. Cell culture conditions were 37±1° C., 5% CO2 and saturated humidity. When the cells reached a density of 80 to 90%, trypsin (0.05%, w/v)/EDTA (0.02%, w/v) digestion solution was added to digest the cells before seeding the plate. Cells were seeded in BD Falcon Transwell-96 well plates at a seeding density of 1×10^5 cells/cm^2. The cells were incubated in a carbon dioxide incubator for 22 days and then used for transport experiments.
Hank's balanced salt buffer (pH 7.40±0.05) containing 10 mM HEPES was used as the transport buffer in this project. The bidirectional transport of the test compound and the positive drug digoxin was tested at a concentration of 2 μM, with two parallel samples each, and the transport of fenoterol and propranolol from the apical to the basal end (A-B) was tested. The concentration of DMSO in the incubation system was controlled to 1% or less. After loading the sample, the cell plate was incubated at 37±1° C., 5% CO2 and saturated humidity for 120 minutes. All samples were vortexed and centrifuged at 3220 rpm and 20° C. for 20 minutes. The control sample and test sample were diluted in a 1:1 (v/v) ratio with ultrapure water and stored at 4° C., and the analytical tests were performed by liquid chromatography tandem mass spectrometry (LC/MS/MS).
In this study, the liquid chromatography tandem mass spectrometry (LC/MS/MS) method was used to semi-quantitatively analyze the peak area ratios of the test compounds and control samples fenoterol, propranolol and digoxin to the internal standard in the starting solution, receiving solution and administration well supernatant. The apparent permeability coefficient (Papp, cm/s), efflux rate and recovery rate were calculated using the following formula: • (1) Papp=(dCr/dt)×Vr/(A×C0), dCr/dt is the cumulative concentration of the compound at the receiving end per unit time (μM/s); Vr is the volume of the solution at the receiving end (0.075 mL and 0.250 mL for the solution at the apical and basal ends, respectively); A is the relative surface area of the cell monolayer (0.0804 cm^2); C0 is the starting concentration (nM) of the test sample at the administration end or the peak area ratio of the control sample. • (2) Efflux ratio=Papp(BA)/Papp(AB) • (3) Recovery rate (%)=100×[(Vr×Cr)+(Vd×Cd)]/(Vd×C0), C0 is the starting concentration (nM) of the test sample at the administration end or the peak area ratio of the control sample; Vd is the volume at the administration end (0.075 mL on the apical side and 0.250 mL on the basal side); Cd and Cr are the final concentration (nM) of the test sample or the peak area ratio of the control sample at the administration and receiving ends, respectively.

For `COc1cc(C)c2[nH]ccc2c1CN1C2CCC1(c1ccc(C(=O)O)cc1)CC(C1CC1)C2` (single isomer, unassigned) [Compound 3B], the “Plasma protein binding (PPB) unbound, Mouse (M)” value in data set [1] is given as 19.1%. The “Plasma protein binding (PPB) unbound, Dog (D)” value in data set [2] worked out at 25.6%. Also, the “Plasma protein binding (PPB) unbound, Cynomolgus monkey (C)” value in data set [3] amounted to 28.5%. Besides, the “Human liver microsomal stability CLint” value in data set [4] was below 15 mL/min/kg. In addition, the Apparent permeability coefficient in the data set on Caco-2 cells (pH 7.40, direction not given) is 1.21 10^−6 cm/s. Also, in the data set on Caco-2 cells (Papp(BA)/Papp(AB)), the Efflux ratio is given as 22.6.
